PubChem BioAssay (NCI)
Several values for one entry are separate records, joined by “and”; a condition that tells them apart may be missing. Identical values can stand only once.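 Compound exposure: 48 hours, 5 concentrations, 96-well plates. GI50 = concentration required for 50% inhibition of growth. TGI denotes the concentration required for complete inhibition of growth.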

Key:
Assay in all cases: growth of human tumour cells (NCI), 48 h; in the data active = GI50 below about 0.43 µM; inactive = the rest
[1] = test system: SK-MEL-28 melanoma
[2] = test system: BT-549 breast
[3] = test system: SK-MEL-2 melanoma
[4] = test system: UO-31 renal
[5] = test system: CCRF-CEM leukemia
[6] = test system: HL-60(TB) leukemia
[7] = test system: 786-0 renal
[8] = test system: OVCAR-5 ovarian
[9] = test system: NCI-H23 lung
[10] = test system: TK-10 renal
[11] = test system: K-562 leukemia
[12] = test system: SR leukemia
[13] = test system: IGROV1 ovarian
[14] = test system: OVCAR-4 ovarian
[15] = test system: SK-OV-3 ovarian
[16] = test system: KM12 colon
[17] = test system: NCI-H460 lung
[18] = test system: UACC-62 melanoma
[19] = test system: OVCAR-3 ovarian
[20] = test system: T-47D breast
[21] = test system: A498 renal
[22] = test system: HOP-62 NSCLC
[23] = test system: SK-MEL-5 melanoma
[24] = test system: PC-3 prostate
[25] = test system: HOP-92 NSCLC
[26] = test system: RPMI-8226 leukemia
[27] = test system: CAKI-1 renal
[28] = test system: MALME-3M melanoma
[29] = test system: MDA-MB-435
[30] = test system: HCT-15 colon
[31] = test system: A549 NSCLC
[32] = test system: NCI/ADR-RES ovarian
[33] = test system: SF-539 CNS
[34] = test system: HT29 colon
[35] = test system: SN12C renal
[36] = test system: HCT-116 colon
[37] = test system: M14 melanoma
[38] = test system: NCI-H522 lung
[39] = test system: UACC-257 melanoma
[40] = test system: SF-268 CNS
[41] = test system: EKVX NSCLC
[42] = test system: HS 578T breast
[43] = test system: SW-620 colon
[44] = test system: COLO 205 colon
[45] = test system: U251 CNS
[46] = test system: OVCAR-8 ovarian
[47] = test system: DU-145 prostate
[48] = test system: MDA-MB-231 breast
[49] = test system: LOX IMVI melanoma
[50] = test system: NCI-H226 lung
[51] = test system: MCF7 breast
[52] = test system: HCC-2998 colon
[53] = test system: SF-295 CNS
[54] = test system: SNB-19 CNS
[55] = test system: MOLT-4 leukemia
[56] = test system: SNB-75 CNS
[57] = test system: ACHN renal
[58] = test system: RXF 393 renal

O=C(O)C[C@H](O)C[C@H](O)/C=C/c1c(C2CC2)nc2ccccc2c1-c1ccc(F)cc1
0.659 µM and 0.381 µM: GI50 [40]
0.508 µM and 0.423 µM: GI50 [24]
0.227 µM and 0.0622 µM: TGI [25]
31.1 µM and 3.56 µM: TGI [23]
active: GI50 [21] 0.202 µM and 0.036 µM | GI50 [48] 0.287 µM and 0.0564 µM
> 100 µM: TGI [1] | TGI [2] | TGI [3] | TGI [4] | TGI [5] | TGI [6] | TGI [7] | TGI [8] | TGI [9] | TGI [10] | TGI [11] | TGI [12] | TGI [14] | TGI [15] | TGI [16] | TGI [17] | TGI [18] | TGI [19] | TGI [20] | TGI [22] | TGI [24] | TGI [26] | TGI [28] | TGI [29] | TGI [30] | TGI [31] | TGI [32] | TGI [33] | TGI [34] | TGI [35] | TGI [36] | TGI [37] | TGI [39] | TGI [40] | TGI [41] | TGI [42] | TGI [43] | TGI [44] | TGI [45] | TGI [46] | TGI [47] | TGI [51] | TGI [52] | TGI [53] | TGI [54] | TGI [55]
12.5 µM and 5.31 µM: TGI [27]
13.9 µM: TGI [49]
inactive: GI50 [1] 27.4 µM and 7.7 µM | GI50 [2] 18.1 µM and 4.11 µM | GI50 [3] 4.06 µM | GI50 [4] 16 µM and 3.48 µM | GI50 [5] 58.4 µM and 25.8 µM | GI50 [6] 4.55 µM and 25.6 µM | GI50 [7] 21.6 µM and 2.86 µM | GI50 [8] 52.6 µM and 7.32 µM | GI50 [9] 8.75 µM and 3.31 µM | GI50 [11] 6.4 µM and 7.73 µM | GI50 [12] 2.59 µM and 0.615 µM | GI50 [13] 5.25 µM and 3.6 µM | GI50 [14] 22.8 µM and 8.04 µM | GI50 [15] 26.1 µM and 6.6 µM | GI50 [16] 34.2 µM and 24.8 µM | GI50 [17] 21.2 µM and 4.92 µM | GI50 [18] 2.3 µM and 0.45 µM | GI50 [19] 16.8 µM and 12.1 µM | GI50 [22] 15 µM and 6.22 µM | GI50 [23] 12.8 µM and 1.32 µM | GI50 [26] 25 µM and 10.4 µM | GI50 [27] 2.66 µM and 1.25 µM | GI50 [28] > 100 µM | GI50 [29] 14.6 µM and 6.04 µM | GI50 [30] 6.16 µM and 0.616 µM | GI50 [31] > 100 µM and 18.7 µM | GI50 [32] 2.82 µM and 0.86 µM | GI50 [33] 43.7 µM and 5.46 µM | GI50 [34] 62.2 µM and 8.24 µM | GI50 [35] 2.4 µM and 0.668 µM | GI50 [36] 5.8 µM and 1.25 µM | GI50 [37] 5.34 µM and 4.38 µM | GI50 [38] 1.38 µM and 0.633 µM | GI50 [39] > 100 µM | GI50 [41] 23.1 µM and 5.16 µM | GI50 [42] 6.45 µM and 2.1 µM | GI50 [43] 18.6 µM and 4.92 µM | GI50 [44] 43.3 µM and 8.98 µM | GI50 [46] 7.63 µM and 2.17 µM | GI50 [47] > 100 µM and 31 µM | GI50 [49] 1.33 µM | GI50 [50] 11.7 µM and 2.22 µM | GI50 [51] 54.7 µM and > 21.9 µM | GI50 [52] 42 µM and 49.9 µM | GI50 [53] 2.1 µM and 0.526 µM | GI50 [55] > 100 µM and 54.5 µM
0.908 µM and 0.226 µM: TGI [21]
1.62 µM and 0.302 µM: GI50 [45]
43.5 µM and > 100 µM: TGI [13]
51.6 µM and 8.01 µM: TGI [50]

COc1ccc(-c2cc(=O)n(-c3nc4ccccc4[nH]3)[nH]2)cc1OC
> 100 µM: TGI [1] | TGI [2] | TGI [7] | TGI [8] | TGI [12] | TGI [14] | TGI [15] | TGI [16] | TGI [19] | TGI [22] | TGI [24] | TGI [27] | TGI [29] | TGI [57] | TGI [30] | TGI [34] | TGI [35] | TGI [36] | TGI [37] | TGI [40] | TGI [43] | TGI [44] | TGI [45] | TGI [47] | TGI [48] | TGI [49] | TGI [51] | TGI [52] | TGI [54]
41.3 µM: TGI [26]
18.6 µM: TGI [4]
23.6 µM: TGI [3]
81.9 µM: TGI [31]
61 µM: TGI [39]
11.9 µM: TGI [58]
19.6 µM: TGI [6]
25.7 µM: TGI [11]
48.9 µM: TGI [33]
33.3 µM: TGI [32]
9.14 µM: TGI [38]
inactive: GI50 [1] 13.9 µM | GI50 [2] 23.7 µM | GI50 [3] 4.77 µM | GI50 [4] 3.2 µM | GI50 [5] 2.66 µM | GI50 [6] 3.59 µM | GI50 [7] 12.4 µM | GI50 [8] 28.2 µM | GI50 [11] 3.73 µM | GI50 [12] 3.85 µM | GI50 [13] 6.08 µM | GI50 [14] 7.9 µM | GI50 [56] 4.99 µM | GI50 [15] 35.3 µM | GI50 [16] 8.56 µM | GI50 [17] 3.91 µM | GI50 [18] 3.79 µM | GI50 [19] 12.9 µM | GI50 [21] 2.33 µM | GI50 [22] 9.36 µM | GI50 [23] 4.08 µM | GI50 [24] 3.8 µM | GI50 [26] 4.61 µM | GI50 [27] 4.79 µM | GI50 [29] 3.87 µM | GI50 [57] 5.72 µM | GI50 [30] 3.7 µM | GI50 [31] 4.72 µM | GI50 [32] 3.57 µM | GI50 [33] 6.36 µM | GI50 [34] 30.5 µM | GI50 [35] 8.85 µM | GI50 [36] 5.83 µM | GI50 [37] 6.74 µM | GI50 [38] 2.96 µM | GI50 [58] 1.24 µM | GI50 [39] 6.4 µM | GI50 [40] 10.2 µM | GI50 [42] 4 µM | GI50 [43] 3.41 µM | GI50 [44] 35.8 µM | GI50 [45] 4.2 µM | GI50 [46] 4.43 µM | GI50 [47] 17.5 µM | GI50 [48] 19.5 µM | GI50 [49] 6.73 µM | GI50 [50] 15 µM | GI50 [51] 4.74 µM | GI50 [52] 16.1 µM | GI50 [53] 1.3 µM | GI50 [54] 7.06 µM
34.9 µM: TGI [23]
68.3 µM: TGI [17]
8.72 µM: TGI [21]
38.1 µM: TGI [5]
81.1 µM: TGI [56]
4.82 µM: TGI [53]
67.1 µM: TGI [50]
76.2 µM: TGI [13]
24.1 µM: TGI [18]
active: GI50 [55] 0.261 µM
63.5 µM: TGI [46]
66.6 µM: TGI [42]
0.648 µM: TGI [55]
